Experimental data published in PMC10850145, “Hormonal steroids induce multidrug resistance and stress response genes in Neisseria gonorrhoeae by binding to MtrR” (Nature Communications, 2024).
“And” between values parts separate entries of the source, which are not always exact repeats. Equal values may be shown once. Read-outs that look alike come from different tables or passages of the source.

System: mtrC-lacZ expression
Format: cell-based, Neisseria gonorrhoeae
Conditions: for Miller units, single well / Miller units, Mean: upper 4-row block; for Miller units, single well: individual replicate; for Miller units, Mean: mean of 4 wells; for β-galactosidase activity, single replicate: ΔmtrR + mtrR R176E in trans; for β-galactosidase activity, individual replicate / β-galactosidase activity, Miller units (single replicate): mtrR WT in cis; for β-galactosidase activity, individual replicate: single replicate values, second (right) block
[1] = 6.25 µM hormone, plate columns 1-6 (WT)
[2] = 6.25 µM hormone, plate columns 7-12 (second strain, not WT)
[3] = 12.5 µM hormone, plate columns 1-6 (WT)
[4] = 12.5 µM hormone, plate columns 7-12 (second strain, not WT)
[5] = 25 µM hormone, plate columns 7-12 (second strain, not WT)
[6] = 50 µM hormone, plate columns 1-6 (WT)
[7] = 50 µM hormone, plate columns 7-12 (second strain, not WT)
[8] = mtrC-lacZ, ΔmtrR + mtrR D171A in trans, 6.25 µM hormone, single replicate
[9] = mtrC-lacZ, ΔmtrR + mtrR D171A in trans, 12.5 µM hormone, single replicate
[10] = mtrC-lacZ, ΔmtrR + mtrR D171A in trans, 25 µM hormone, single replicate
[11] = mtrC-lacZ, ΔmtrR + mtrR D171A in trans, 50 µM hormone, single replicate
[12] = mtrC-lacZ, ΔmtrR + mtrR WT in trans, 6.25 µM hormone, single replicate
[13] = mtrC-lacZ, ΔmtrR + mtrR WT in trans, 12.5 µM hormone, single replicate
[14] = mtrC-lacZ, ΔmtrR + mtrR WT in trans, 25 µM hormone, single replicate
[15] = mtrC-lacZ, ΔmtrR + mtrR WT in trans, 50 µM hormone, single replicate

`CC(=O)[C@H]1CC[C@H]2[C@@H]3CCC4=CC(=O)CC[C@]4(C)[C@H]3CC[C@]12C` [Progesterone, progesterone] was tested, and the Miller units (6.25 µM hormone, plate columns 1-6 (WT), plate rows 1-4 (mtrC), single well) was 82 Miller units and 48 Miller units and 89 Miller units, the “Miller units, single well” value [1] was 82 Miller units and 48 Miller units and 89 Miller units and 47 Miller units and the “Miller units, Mean” value [1] was 66 Miller units. The Miller units (6.25 µM hormone, plate columns 7-12 (second strain not given), plate rows 1-4 (mtrC), single well) was 315 Miller units and 180 Miller units and 172 Miller units, the “Miller units, single well” value [2] was 315 Miller units and 180 Miller units and 172 Miller units and 146 Miller units and the “Miller units, Mean” value [2] was 203 Miller units. The Miller units (12.5 µM hormone, plate columns 1-6 (WT), plate rows 1-4 (mtrC), single well) was 112 Miller units and 91 Miller units and 70 Miller units, the “Miller units, single well” value [3] was 112 Miller units and 91 Miller units and 70 Miller units and 43 Miller units and the “Miller units, Mean” value [3] was 79 Miller units. The Miller units (12.5 µM hormone, plate columns 7-12 (second strain not given), plate rows 1-4 (mtrC), single well) was 228 Miller units and 168 Miller units and 142 Miller units, the “Miller units, single well” value [4] was 228 Miller units and 168 Miller units and 142 Miller units and 163 Miller units and the “Miller units, Mean” value [4] was 175 Miller units. The Miller units (25 µM hormone, plate columns 1-6 (WT), plate rows 1-4 (mtrC), single well) was 152 Miller units and 193 Miller units, the “Miller units, single well” value (25 µM hormone, plate columns 1-6 (WT)) was 152 Miller units and 193 Miller units and 125 Miller units and the Miller units (25 µM hormone, plate columns 7-12 (second strain not given), plate rows 1-4 (mtrC), single well) was 253 Miller units and 170 Miller units and 160 Miller units. The “Miller units, single well” value [5] was 253 Miller units and 170 Miller units and 160 Miller units and 118 Miller units, the “Miller units, Mean” value [5] was 175 Miller units and the Miller units (50 µM hormone, plate columns 1-6 (WT), plate rows 1-4 (mtrC), single well) was 185 Miller units and 157 Miller units and 126 Miller units. For the same compound, the “Miller units, single well” value [6] was 185 Miller units and 157 Miller units and 126 Miller units and 75 Miller units, the “Miller units, Mean” value [6] was 136 Miller units and the Miller units (50 µM hormone, plate columns 7-12 (second strain not given), plate rows 1-4 (mtrC), single well) was 186 Miller units and 138 Miller units and 118 Miller units. The “Miller units, single well” value [7] was 186 Miller units and 138 Miller units and 118 Miller units and 96 Miller units, the “Miller units, Mean” value [7] was 134 Miller units and the “induction of mtrC expression” value (complemented (MtrR+) strains, increasing hormone) was “could be induced”. The “induction of mtrC expression” value (loss of MtrR or MtrR-D171A strain) was “abrogated”, the Miller units [8] was 150 Miller units and 142 Miller units and the “β-galactosidase activity (Miller units)” value [8] was 147 Miller units and 144 Miller units and 150 Miller units and 142 Miller units. The Miller units [9] was 139 Miller units and 154 Miller units, the “β-galactosidase activity (Miller units)” value [9] was 146 Miller units and 130 Miller units and 139 Miller units and 154 Miller units and the Miller units [10] was 164 Miller units. The “β-galactosidase activity (Miller units)” value [10] was 161 Miller units and 184 Miller units and 164 Miller units, the Miller units [11] was 111 Miller units and 106 Miller units and the “β-galactosidase activity (Miller units)” value [11] was 114 Miller units and 91 Miller units and 111 Miller units and 106 Miller units. For the same compound, the Miller units [12] was 71 Miller units and 75 Miller units and 104 Miller units and 85 Miller units, the “β-galactosidase activity (Miller units)” value [12] was 71 Miller units and 75 Miller units and 104 Miller units and 85 Miller units and the Miller units [13] was 90 Miller units and 80 Miller units and 98 Miller units and 88 Miller units. The “β-galactosidase activity (Miller units)” value [13] was 90 Miller units and 80 Miller units and 98 Miller units and 88 Miller units, the Miller units [14] was 120 Miller units and 101 Miller units and 124 Miller units and 107 Miller units and the “β-galactosidase activity (Miller units)” value [14] was 120 Miller units and 101 Miller units and 124 Miller units and 107 Miller units. For the same compound, the Miller units [15] was 125 Miller units and 123 Miller units and 130 Miller units and 139 Miller units, the “β-galactosidase activity (Miller units)” value [15] was 125 Miller units and 123 Miller units and 130 Miller units and 139 Miller units and the “β-galactosidase activity (Miller units)” value (mtrC-lacZ, ΔmtrR strain, 6.25 µM hormone, single replicate) was 239 Miller units. For the same compound, the “β-galactosidase activity (Miller units)” value (mtrC-lacZ, ΔmtrR strain, 12.5 µM hormone, single replicate) was 205 Miller units, the “β-galactosidase activity (Miller units)” value (mtrC-lacZ, ΔmtrR strain, 25 µM hormone, single replicate) was 223 Miller units and the “β-galactosidase activity (Miller units)” value (mtrC-lacZ, ΔmtrR strain, 50 µM hormone, single replicate) was 197 Miller units. For the same compound, the “β-galactosidase activity, single replicate” value (mtrCDE block (c1-c37), 6.25 µM) was 221 Miller units and 281 Miller units and 181 Miller units and 184 Miller units, the “β-galactosidase activity, single replicate” value (mtrCDE block (c1-c37), 12.5 µM) was 215 Miller units and 235 Miller units and 172 Miller units and 208 Miller units and the “β-galactosidase activity, single replicate” value (mtrCDE block (c1-c37), 25 µM) was 255 Miller units and 287 Miller units and 177 Miller units and 185 Miller units. For the same compound, the “β-galactosidase activity, single replicate” value (mtrCDE block (c1-c37), 50 µM) was 296 Miller units and 219 Miller units and 227 Miller units and 184 Miller units, the “β-galactosidase activity, individual replicate” value (6.25 µM hormone) was 41 Miller units and 35 Miller units and the “β-galactosidase activity, Miller units (single replicate)” value (shortened to “β-galactosidase activity, Miller units”) (6.25 µM, first data set (c15-c36)) was 115 Miller units and 113 Miller units and 101 Miller units and 103 Miller units. For the same compound, the “β-galactosidase activity, Miller units” value (6.25 µM, second data set (c53-c74)) was 37 Miller units and 29 Miller units, the “β-galactosidase activity, individual replicate” value (12.5 µM hormone) was 61 Miller units and 54 Miller units and the “β-galactosidase activity, Miller units” value (12.5 µM, first data set (c15-c36)) was 153 Miller units and 144 Miller units and 132 Miller units. The “β-galactosidase activity, Miller units” value (12.5 µM, second data set (c53-c74)) was 41 Miller units and 34 Miller units, the “β-galactosidase activity, individual replicate” value (25 µM hormone) was 90 Miller units and 65 Miller units and the “β-galactosidase activity, Miller units” value (25 µM, first data set (c15-c36)) was 256 Miller units and 186 Miller units and 175 Miller units and 160 Miller units. For the same compound, the “β-galactosidase activity, Miller units” value (25 µM, second data set (c53-c74)) was 66 Miller units and 58 Miller units, the “β-galactosidase activity, individual replicate” value (50 µM hormone) was 111 Miller units and 114 Miller units and the “β-galactosidase activity, Miller units” value (50 µM, first data set (c15-c36)) was 228 Miller units and 242 Miller units and 200 Miller units and 220 Miller units. The “β-galactosidase activity, Miller units” value (50 µM, second data set (c53-c74)) was 91 Miller units and 73 Miller units, the “β-galactosidase activity, single replicate” value (second block of sheet (c39-c76), 6.25 µM) was 130 Miller units and 89 Miller units and 76 Miller units and 71 Miller units and the “β-galactosidase activity, single replicate” value (second block of sheet (c39-c76), 12.5 µM) was 125 Miller units and 104 Miller units and 71 Miller units and 67 Miller units. For the same compound, the “β-galactosidase activity, single replicate” value (second block of sheet (c39-c76), 25 µM) was 151 Miller units and 130 Miller units and 84 Miller units and 80 Miller units and the “β-galactosidase activity, single replicate” value (second block of sheet (c39-c76), 50 µM) was 130 Miller units and 108 Miller units and 88 Miller units and 66 Miller units.
